Measured values reported in patent publication US10076576B2, “Minimally toxic prodrugs” (priority 2012, dated 2018).
Values joined by “and” are separate entries in the source; they are usually repeats but may differ in a detail not shown here. Equal values may be shown once.

How the values were obtained:
[1] = target: CD26 (Homo sapiens, UniProt P27487); assay: Reactivation assay with purified CD26; assay type: biochemical; conditions: 3 h incubation at 37° C.
Description: (§1) TOP (recombinant human thimet oligopeptidase, R&D systems, Ref 3439-ZN) was diluted at 10 nM in a solution of 50 mM Tris-HCl pH 7.4/0.5M NaCl/0.1M DTT. CD26 and FAP were diluted at 1 μg/mL in a Tris-HCl pH 7.5 buffer. Reactions were initiated by addition of 50 μM of each compound to enzymes solutions (1 V enzyme solution+1 V 100 μM drug solution). Samples were incubated for 0, 1, or 3 hours at 37° C. in a water bath in the presence of purified enzymes. Fifty μL of sample were collected at each time point and processed as described above for human plasma. Activation of Suc-βALAL-dox was tested in parallel as a reference.

[2] = target: T1, FAP (Homo sapiens, UniProt Q12884); assay: Reactivation assay with purified FAP; assay type: biochemical; conditions: 3 h incubation at 37° C.
T1 sequence (Q12884 1-760): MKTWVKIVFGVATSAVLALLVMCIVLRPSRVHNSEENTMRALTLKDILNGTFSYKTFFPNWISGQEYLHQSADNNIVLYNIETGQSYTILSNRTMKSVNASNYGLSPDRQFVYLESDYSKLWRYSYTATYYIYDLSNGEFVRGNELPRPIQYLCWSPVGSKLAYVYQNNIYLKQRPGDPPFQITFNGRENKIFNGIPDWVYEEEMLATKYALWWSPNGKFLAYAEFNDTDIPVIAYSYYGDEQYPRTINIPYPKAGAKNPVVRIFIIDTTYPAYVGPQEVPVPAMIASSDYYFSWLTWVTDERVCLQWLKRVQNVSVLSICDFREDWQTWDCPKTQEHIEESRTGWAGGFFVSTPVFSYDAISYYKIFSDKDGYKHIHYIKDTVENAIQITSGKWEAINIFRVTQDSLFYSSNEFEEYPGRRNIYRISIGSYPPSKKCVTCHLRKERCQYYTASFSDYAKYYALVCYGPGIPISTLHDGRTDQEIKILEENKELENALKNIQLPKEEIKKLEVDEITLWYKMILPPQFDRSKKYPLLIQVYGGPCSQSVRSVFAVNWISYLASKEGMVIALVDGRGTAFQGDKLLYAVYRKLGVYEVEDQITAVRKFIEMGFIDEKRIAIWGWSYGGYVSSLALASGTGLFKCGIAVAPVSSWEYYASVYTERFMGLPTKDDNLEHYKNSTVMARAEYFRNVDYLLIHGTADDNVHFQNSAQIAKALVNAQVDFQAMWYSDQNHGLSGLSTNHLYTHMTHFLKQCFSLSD
Description: as §1

[3] = test system: tumor cell lines; conditions: cited from earlier work
[4] = test system: LS-174T tumor cell secreted peptidases; assay: Reactivation assay in LS174T tumor cell conditioned medium; assay type: biochemical, human; conditions: for activation by tumor cell secreted enzymes (in words): LS174T tumor cell conditioned medium
Description: Sub-confluent cultures of LS-174T tumor cells were washed twice with a saline phosphate buffer solution, and fresh culture medium (DMEM-F12 without phenol red) containing 0.02% bovine serum albumin is added (100 μl/cm^2). After 24 hours incubation, the conditioned medium is collected, centrifuged for 10 minutes at 300 g, buffered with 1 M Tris-HCl, pH 7.4 (1 volume of buffer+19 volumes of medium) and concentrated 20 times by […] (cutoff threshold of 10 kDa).
Drug compounds (50 μM) were incubated for 0, 1, 3 or 5 hours at 37° C. in the presence of freshly prepared LS174T tumor cell conditioned medium. Fifty μL of sample were collected at each time point and processed as described above for human plasma.

[5] = Stability in citrated human plasma; conditions: 5 hours incubation at 37° C. in citrated human plasma (pH7), 50 μM
Description: The drug conjugates (50 μM) were mixed with human plasma and incubated for 5 hours at 37° C. in a water bath. […] Supernatant was collected.

[6] = target: T2, CD10 (recombinant human neprilysin) (Homo sapiens, UniProt P08473); assay: Reactivation assay with purified CD10; assay type: biochemical; conditions: 3 h at 37° C.; for % Metabolites released after 3 h (CD10 10 nM) / CD10 10 nM (cleavage +/−): 50 μM compound
T2 construct: purchased R&D systems 1182-ZN
T2 sequence (P08473 52-750 limits assumed): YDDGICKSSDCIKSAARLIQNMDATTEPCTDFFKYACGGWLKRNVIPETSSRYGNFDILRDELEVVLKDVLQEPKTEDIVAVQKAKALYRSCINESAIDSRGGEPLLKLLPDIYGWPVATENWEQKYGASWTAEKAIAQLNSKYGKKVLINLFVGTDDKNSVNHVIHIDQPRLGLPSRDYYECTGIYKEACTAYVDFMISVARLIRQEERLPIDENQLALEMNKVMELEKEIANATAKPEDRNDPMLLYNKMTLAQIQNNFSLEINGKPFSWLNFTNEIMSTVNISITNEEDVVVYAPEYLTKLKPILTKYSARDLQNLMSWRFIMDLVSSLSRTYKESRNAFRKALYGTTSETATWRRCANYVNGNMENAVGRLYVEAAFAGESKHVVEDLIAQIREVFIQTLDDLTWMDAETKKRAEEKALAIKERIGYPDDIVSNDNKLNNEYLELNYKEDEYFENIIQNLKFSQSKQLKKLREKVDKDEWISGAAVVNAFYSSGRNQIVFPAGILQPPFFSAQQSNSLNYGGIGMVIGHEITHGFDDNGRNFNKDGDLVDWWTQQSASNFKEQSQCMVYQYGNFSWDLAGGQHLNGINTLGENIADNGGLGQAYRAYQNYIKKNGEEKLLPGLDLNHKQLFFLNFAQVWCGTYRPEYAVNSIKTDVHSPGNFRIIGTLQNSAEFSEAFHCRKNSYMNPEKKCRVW

[7] = Stability in citrated human blood; conditions: 5 hours incubation at 37° C. in citrated human blood, 50 μM
[8] = target: T3, TOP (recombinant human thimet oligopeptidase) (Homo sapiens, UniProt P52888); assay: Reactivation assay with purified TOP; assay type: biochemical; conditions: 3 h at 37° C.; for % Metabolites released after 3 h (TOP 5 nM) / TOP 5 nM (cleavage +/−): 50 μM compound
T3 construct: purchased R&D systems 3439-ZN
T3 sequence (P52888 whole entry): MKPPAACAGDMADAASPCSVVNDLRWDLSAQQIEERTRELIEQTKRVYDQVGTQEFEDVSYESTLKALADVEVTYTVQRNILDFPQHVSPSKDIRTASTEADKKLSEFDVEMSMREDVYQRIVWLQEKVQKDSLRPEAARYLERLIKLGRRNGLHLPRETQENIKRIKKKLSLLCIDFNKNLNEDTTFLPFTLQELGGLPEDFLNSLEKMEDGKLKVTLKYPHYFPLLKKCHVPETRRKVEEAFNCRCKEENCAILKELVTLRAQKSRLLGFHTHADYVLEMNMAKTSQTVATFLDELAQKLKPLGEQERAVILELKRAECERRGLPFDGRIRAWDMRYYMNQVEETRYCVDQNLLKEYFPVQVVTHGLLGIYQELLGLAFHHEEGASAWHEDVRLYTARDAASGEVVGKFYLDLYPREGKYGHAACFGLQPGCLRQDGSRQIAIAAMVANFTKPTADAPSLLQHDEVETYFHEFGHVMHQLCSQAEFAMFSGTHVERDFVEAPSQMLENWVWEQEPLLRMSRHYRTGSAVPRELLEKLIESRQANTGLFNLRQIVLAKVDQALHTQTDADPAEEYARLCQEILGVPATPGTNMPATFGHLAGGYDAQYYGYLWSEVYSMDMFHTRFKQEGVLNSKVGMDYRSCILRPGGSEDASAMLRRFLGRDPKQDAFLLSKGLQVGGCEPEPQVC
Description: as §1

[9] = In vivo toxicity after single iv bolus injection (body weight); design: species or system OF-1 mice
Description: FIG. 1. Effect of PhAc-peptide-Dox conjugates on the body weight of OF-1 normal mice (n=4). […] Results represent the mean body weight evolution.
The in vivo toxicity was evaluated by monitoring body weight.

[10] = target: dihydrofolate reductase (DHFR) (Homo sapiens, UniProt P00374); conditions: cited from earlier work
Sequence of dihydrofolate reductase (DHFR) (P00374 whole entry, species assumed): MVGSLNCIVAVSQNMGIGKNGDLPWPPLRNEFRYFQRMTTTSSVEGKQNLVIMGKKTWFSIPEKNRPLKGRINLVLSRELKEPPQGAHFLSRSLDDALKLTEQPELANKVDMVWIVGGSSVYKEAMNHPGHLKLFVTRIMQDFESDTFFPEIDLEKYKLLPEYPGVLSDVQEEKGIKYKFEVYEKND

Sequence of CD26 (P27487 whole entry): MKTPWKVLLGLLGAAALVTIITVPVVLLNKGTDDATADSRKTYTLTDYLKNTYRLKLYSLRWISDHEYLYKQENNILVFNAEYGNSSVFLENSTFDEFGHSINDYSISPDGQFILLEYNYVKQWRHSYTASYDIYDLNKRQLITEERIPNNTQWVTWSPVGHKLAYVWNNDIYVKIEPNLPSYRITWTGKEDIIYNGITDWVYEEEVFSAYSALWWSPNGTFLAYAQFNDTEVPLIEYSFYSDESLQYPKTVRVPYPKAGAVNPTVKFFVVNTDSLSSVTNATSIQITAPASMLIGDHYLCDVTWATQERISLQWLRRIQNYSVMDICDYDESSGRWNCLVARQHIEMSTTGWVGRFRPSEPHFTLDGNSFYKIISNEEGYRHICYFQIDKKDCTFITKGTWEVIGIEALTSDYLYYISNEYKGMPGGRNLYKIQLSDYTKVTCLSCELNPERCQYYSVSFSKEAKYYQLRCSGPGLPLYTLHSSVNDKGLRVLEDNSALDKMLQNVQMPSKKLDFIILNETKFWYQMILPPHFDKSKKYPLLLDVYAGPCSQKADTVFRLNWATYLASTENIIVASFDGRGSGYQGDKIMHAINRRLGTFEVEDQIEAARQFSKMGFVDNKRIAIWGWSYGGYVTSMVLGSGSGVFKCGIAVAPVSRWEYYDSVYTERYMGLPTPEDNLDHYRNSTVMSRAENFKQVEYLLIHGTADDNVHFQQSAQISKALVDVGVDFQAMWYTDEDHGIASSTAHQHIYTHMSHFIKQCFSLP

Compound	% Metabolites released after 5 h (LS174T CM20xcc) ([4]; 5 h at 37° C., 50 μM compound)	activation by tumor cell secreted enzymes (in words) [4]	cleavage by CD10 (in words) [6]	% Metabolites released after 3 h (CD10 10 nM) [6]	% Metabolites released after 3 h (TOP 5 nM) [8]	also measured
COc1cccc2c1C(=O)c1c(O)c3c(c(O)c1C2=O)C[C@@](O)(C(=O)CO)C[C@@H]3O[C@H]1C[C@H](NC(=O)[C@@H]2CCCN2C(=O)CN)[C@H](O)[C@H](C)O1 [GP-Dox, NH2-Gly-Pro-Doxorubicin]						conversion to Dox by CD26 [1]: 97%; conversion to Dox by FAP [2]: 62%
COc1cc2cc(c1Cl)N(C)C(=O)C[C@H](OC(=O)[C@H](C)N(C)C(C)=O)[C@]1(C)O[C@H]1[C@H](C)[C@@H]1C[C@@](O)(NC(=O)O1)[C@H](OC)/C=C/C=C(\C)C2 [Maytansine]						fold higher cytotoxicity than the Vinca alkaloids [3]: about 100 fold; fold higher toxicity than doxorubicin [3]: about 1000 fold
COc1cccc2c1C(=O)c1c(O)c3c(c(O)c1C2=O)CC(O)(C(=O)CO)CC3OC1CC(NC(=O)C(Cc2ccccc2)NC(=O)C(C)NC(=O)C(CC(C)C)NC(=O)C(C)NC(=O)CP(=O)(O)O)C(O)C(C)O1 (stereo not shown) [PhAc-ALAF-Dox, PhAc-ALAF-doxorubicin]	32 ± 15%	activated into F-Dox	moderately cleaved	24 ± 5%	<5%	% metabolites released: Dox [5]: 0%; % metabolites released: F-Dox [5]: 2%; total % metabolites [5]: 2%; % metabolites released: Dox [7]: 5%; % metabolites released: F-Dox [7]: 5%; total % metabolites [7]: 10%; TOP 5 nM (cleavage +/−) [8]: −* (*less than 5% of metabolites detected)
COc1cccc2c1C(=O)c1c(O)c3c(c(O)c1C2=O)CC(O)(C(=O)CO)CC3OC1CC(NC(=O)C(CC(C)C)NC(=O)C(C)NC(=O)C(CC(C)C)NC(=O)C(C)NC(=O)CP(=O)(O)O)C(O)C(C)O1 (stereo not shown) [PhAc-ALAL-Dox, PhAc-ALAL-doxorubicin]	65 ± 19%	activated	not efficiently cleaved		44% and 44 ± 6%	body weight loss (in words) ([9]; 80 μmol/kg single iv): No significant body weight loss; toxicity (in words) ([9]; 160 μmol/kg single iv): high toxicity; % metabolites released: AL-Dox [5]: 0%; % metabolites released: Dox [5]: <1%; % metabolites released: L-dox [5]: 2%; total % metabolites [5]: 2%; CD10 10 nM (cleavage +/−) [6]: −* (*less than 5% of metabolites detected); % metabolites released: AL-Dox [7]: 0%; % metabolites released: Dox [7]: 9%; % metabolites released: L-dox [7]: 6%; total % metabolites [7]: 15%
COc1cccc2c1C(=O)c1c(O)c3c(c(O)c1C2=O)CC(O)(C(=O)CO)CC3OC1CC(NC(=O)C(Cc2ccccc2)NC(=O)C2CCCN2C(=O)C(CC(C)C)NC(=O)C(C)NC(=O)CP(=O)(O)O)C(O)C(C)O1 (stereo not shown) [PhAc-ALPF-Dox, PhAc-ALPF-doxorubicin]	11 ± 6%	activated into F-Dox		0%	<5%	% metabolites released: Dox [5]: 0%; % metabolites released: F-Dox [5]: 0%; total % metabolites [5]: 0%; % metabolites released: Dox [7]: 4%; % metabolites released: F-Dox [7]: 1%; total % metabolites [7]: 5%; TOP 5 nM (cleavage +/−) [8]: −* (*less than 5% of metabolites detected)
Methotrexate						affinity for DHFR relative to folate [10]: ~1000 fold
PhAc-AIGP-doxorubicin	3 ± 3%	not activated		18% and 18 ± 3%	<5%	LS174T CM20xcc (activation +/−) ([4]; 5 h at 37° C., conditioned medium concentrated 20 times, 50 μM compound): −* (*less than 5% of metabolites detected); cleavage by TOP (in words) [8]: not cleaved; TOP 5 nM (cleavage +/−) [8]: −* (*less than 5% of metabolites detected)
PhAc-DLGP-doxorubicin	0%	not activated	not or very slightly activated	0%	0%	cleavage by TOP (in words) [8]: not cleaved
PhAc-GPGP-doxorubicin	0%	not activated	not or very slightly activated	0%	0%	cleavage by TOP (in words) [8]: not cleaved
PhAc-KLGP-doxorubicin	39 ± 13%	mainly GP-Dox is detected	not or very slightly activated	<5%	31% and 31 ± 5%	CD10 10 nM (cleavage +/−) [6]: −* (*less than 5% of metabolites detected)
PhAc-TSGP-doxorubicin	35 ± 18%	mainly GP-Dox is detected	not or very slightly activated	0%	38% and 38 ± 2%	
